Measured values as given in patent publication US20180263940A1, “TREATMENT OF SKIN CONDITIONS” (priority 2015, published 2018).
Entries after “also recorded” stand apart in the source; their conditions may differ.

Tests used:
[1] = system: naturally parakeratotic tail scale skin; assay: Ex vivo mouse tail scale assay; type: cell-based; conditions: 4 days ex vivo
Procedure: 7-9 week old wild type mice of either gender were sacrificed and the tail skin tissue harvested then cultured 4 days on a porous membrane chamber insert with the epidermis exposed to air and dermis side in contact with media drawn through the porous membrane. Various concentrations and combinations of Mesalamine (2 mM and 5 mM) and Acitretin (1 μM) were added to the media or media alone used as a control. Media was refreshed after 48 hrs. Skins were then harvested on the 4 th day and fixed in 4% PFA overnight then stored in 80% Ethanol until processed and embedded in paraffin wax. 8 micron sections were then cut and stained with Haematoxylin and Eosin and analysed. Images were taken from at least 10 scales from 3 mice per treatment condition and the % orthokeratosis measured as defined in the figure legend for FIG. 13.

[2] = system: E16.5 embryonic back skin (Abca12 Lx12/Lx12 and Lx12/+); assay: Harlequin Ichthyosis ex vivo embryo whole mount skin assay, cornified envelope thickening; type: cell-based, mouse; conditions: 10 mM Mesalamine or 1 uM Acitretin, 4 days ex vivo
Procedure: Embryonic back skin was collected at E16.5 from across 3 litters generated by Abca12 Lx12/+ cross Abca12 Lx12/+ matings to generate Harlequin Ichthyosis embryos Abca12 Lx12/Lx12 and control siblings Abca12 Lx12/+ and Abca12+/+. The embryonic skin was then cultured 4 days on a porous membrane chamber insert with the epidermis exposed to air and dermis side in contact with media drawn through the porous membrane to permit maturation and adaptation to air. 10 mM Mesalamine or 1 uM Acitretin was supplied in the culture media and media refreshed at 48 hrs. Vehicle samples were left without drug treatment. Skins were then harvested on the 4th day and fixed in 4% PFA for 3-4 hrs then stored in 80% Ethanol until processed and embedded in paraffin wax. 8 micron sections were then cut and stained with Haematoxylin and Eosin and analysed. The percentage of skin thickness accounted for by the cornified envelope (cornified layer) was measured and results normalised as a fold change over the vehicle-treated control siblings in each assay. Wild type siblings were under represented in these litters so phenotypically normal heterozygote siblings were used as controls.

[3] = system: E16.5 embryonic mouse dorsal skin (Lx12/Lx12 HI mutant, Lx12/+, +/+); assay: Ex vivo chamber assay of E16.5 embryonic mouse dorsal skin during Harlequin Ichthyosis (HI) disease acquisition, H&E and immunofluorescent staining; type: cell-based
Description: The mouse strain ‘Abca12^tm1Lex’ NIH-0129 was obtained from Lexicon genetics and are referred to herein as Abca12Lx12/Lx12, or simply Lx12/Lx12, mice. These mice have a puromycin selection cassette-mediated exon 8 disruption and recapitulate the features of HI akin to other Abca12 mutant strains. All animal procedures complied with standards set under Australian guidelines for animal welfare and experiments were subject to Monash University animal welfare ethics review panels.
Anti-cleaved caspase 3 (#9664P) 1:100 (IHC) Cell Signalling Technologies, USA. Anti-filaggrin (PRB-417P) 1: 1000 (IHC) Covance, USA. Anti-involucrin (PRB-140C) 1: 1000 (IHC) Covance, USA. Antikeratin 10 (PRB-159P) 1: 500 (IHC) Covance, USA. Antikeratin 10 (sc-23877) 1: 100 (IHC) Santa Cruz Biotechnology USA. Anti-keratin 14 (LL002) (ab7800) 1: 250-1000 (IHC) Abcam, UK. Anti-loricrin (PRB-145P) 1: 1000 (IHC) Covance, USA. Molecular Probes AlexaFluor A488 and 555 secondary antibodies raised in Donkey, against rabbit or mouse, were used at 1: 600, from Life Technologies. Nuclei stains used included DAPI (Sigma-Aldrich) 1: 1000. DAB staining was performed by the Monash Histology Platform using Leica autostainers and Dako products.
The ability of mesalamine to rescue the impaired differentiation in an HI mouse model, which represents an extremely severe inflammatory skin disease, was tested. Embryonic back skins at E16.5 were harvested from a litter containing wild type, heterozygous and HI embryos. The skin was divided into two pieces and each cultured for 4 days in a standard ex vivo chamber assay, where the skin rests dermis-side down on a chamber insert membrane and draws cell culture media up from the below well, forming an air face on the epidermis side and liquid face for the dermal side, similar to the normal skin environment. Mesalamine was added in the media of one of each pair of skins at 10 mM (the active concentration determined to have most impact in the gut for intestinal diseases).

[4] = system: E18.5 embryonic mouse dorsal skin (Lx12/Lx12 HI mutant, Lx12/+, +/+); assay: Ex vivo chamber assay of E18.5 embryonic mouse dorsal skin after HI disease acquisition, H&E; type: cell-based; conditions: 4 days ex vivo
Procedure: Representative Haematoxylin and Eosin staining of embryonic mouse dorsal skin from two E18.5 litters, cultured ex vivo for 4 days on chamber inserts, with 1 or 10 mM mesalamine in standard culture media or vehicle alone is shown in FIG. 9. +/+ presents wild type skin. Lx12/Lx12 represents the HI mutant skin and Lx12/+ represents seemingly normal skin carrying the recessive HI mutant allele. Note once again the abnormality observed in the spinous layer, loss of the granular layer and proportional thickening of the stratum corneum in Lx12/Lx12 (HI) vehicle treated skins. Lx12/+ skins also appeared slightly abnormal relative to +/+ vehicle treated skins. […] Images are repeated in grayscale.

GRHL3 −/− epidermis = assay: Ex vivo whole mount assay of GRHL3 -/- skin (proxy model of Lamellar Ichthyosis), cornified layer thickness; type: cell-based, mouse; conditions: E16.5, 10 mM, 4 days ex vivo
Procedure: Embryonic back skin was collected at E16.5 from litters generated by GRHL3+/− cross Abca12 GRHL3+/− matings to generate Ichthyosis embryos GRHL3 −/− and control siblings GRHL3+/− and GRHL3+/+. The embryonic skin was then cultured 4 days on a porous membrane chamber insert with the epidermis exposed to air and dermis side in contact with media drawn through the porous membrane to permit maturation and adaptation to air. Skins were then harvested and fixed in 4% PFA for 3-4 hrs then stored in 80% Ethanol until processed and embedded in paraffin wax. 8 micron sections were then cut and stained with Haematoxylin and Eosin and analysed.

[5] = system: E16.5 embryonic mouse dorsal skin (Lx12/Lx12 HI mutant, Lx12/+, +/+); assay: Ex vivo chamber assay of E16.5 embryonic mouse dorsal skin during Harlequin Ichthyosis (HI) disease acquisition, H&E and immunofluorescent staining; type: cell-based; conditions: second E16.5 litter, 1 or 10 mM, 4 days ex vivo
[6] = Harlequin Ichthyosis (Lx12/Lx12) skins
[7] = control heterozygous Lx12/+ skins
[8] = Lx12/+ skin, 10 mM, 4 days ex vivo
[9] = Lx12/Lx12 skin, 10 mM, 4 days ex vivo

Row | SMILES | Orthokeratosis ([1]; 1 μM Acitretin) | Cornified layer proportion of skin thickness [2, 6] | Cornified layer proportion of skin thickness [2, 7] | Skin differentiation defects in HI ([3]; 10 mM in media, pair matched skins across genotypes) | Epidermis morphology (Haematoxylin and Eosin) ([3]; +/+ wild type skin, 10 mM, 4 days ex vivo) | Apoptosis (cleaved-Caspase-3 positive cells) ([3]; Lx12/+ and Lx12/Lx12 skin, 10 mM, 4 days ex vivo) | Granular layer Filaggrin (FLG) [3, 8] | Keratin 10 (K10) positive keratinocytes [3, 8] | Epidermis morphology (Haematoxylin and Eosin) ([3]; Lx12/Lx12 (HI) skin, 10 mM, 4 days ex vivo) | Granular layer Filaggrin (FLG) [3, 9] | Involucrin (INV) expression [3, 9] | Keratin 10 (K10) positive keratinocytes [3, 9] | Loricrin (LOR) expression [3, 9] | Epidermis morphology (Haematoxylin and Eosin) ([4]; Lx12/Lx12 (HI) skin, E18.5, 1 mM) | Epidermis morphology (Haematoxylin and Eosin) ([4]; all genotypes, E18.5, 10 mM) | Cornified layer thickening (GRHL3 −/− epidermis) | Orthokeratosis compared with 1 μM Acitretin ([1]; 2 mM Mesalamine) | Orthokeratosis ([1]; 2 mM and 5 mM Mesalamine in the culture medium) | Epidermis morphology (Haematoxylin and Eosin) [5]
1 | COc1cc(C)c(/C=C/C(C)=C/C=C/C(C)=C/C(=O)O)c(C)c1C [Acitretin] | promoted orthokeratosis | no significant effect | no significant effect | – | – | – | – | – | – | – | – | – | – | – | – | – | – | – | –
2 | Nc1ccc(O)c(C(=O)O)c1 [Mesalamine, 5-aminosalicylic acid] | – | reduced the cornified layer proportion to vehicle control levels | reduced the thickness | significantly rescued | did not however appear to greatly effect | apoptosis is reduced | restored | revert to normal levels | acquires a more-normal appearance | partially restored | a more organised, and delayed (granular layer) expression | some modest improvement | a more normal, predominantly granular layer expression | acquires a more-normal appearance | reducing the keratinocytes accumulating in the spinous layers | reduced hyper-thickening of the cornified layer; also recorded: loss of thickening | performing similarly to 1 μM Acitretin | dose dependent increase in orthokeratosis | acquires a more-normal appearance
